Measured values as given in US11242337B2, “Compounds useful for treating gastrointestinal tract disorders” (Ardelyx, Inc., priority 2017, dated 2022).
Like-named read-outs stand apart in the source and are kept apart here.

How the values were obtained:
[1] = system: human duodenum monolayer culture; experiment: Increased trans-epithelial resistance (TEER) in human organoid monolayer cell cultures; type: cell-based; conditions: 1 μM apical, baseline corrected
Method in brief: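 Human duodenum organoid-derived monolayers on 0.4 μm Transwells, differentiated with EGF, noggin, A83-01 from day 3, dosed apically on day 6 or 7 with 1 μM compound at 37° C., 5% CO2, duplicate wells. TEER read before and 30 min and 1 hr after dosing, baseline-corrected and expressed as percent of DMSO vehicle.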

[2] = system: gastrointestinal transit; experiment: Restoration of gastrointestinal motility in opioid induced constipation (loperamide); type: in vivo, mice; conditions: oral gavage 15 mg/kg, loperamide s.c., Evans Blue small intestinal transit 30 minutes
Protocol: Approximately eight-week old, female, CD1 […] are purchased from Envigo (Livermore, Calif.), are housed 4 per cage and acclimated for at least 48 hours before study initiation. Animals are fed standard laboratory rodent chow Harlan Teklad Global 2018 (Madison, Wis.). Animals have ad libitum access to food and water for the duration of the acclimation period and are maintained in a temperature and humidity controlled room on a standard light/dark cycle of 6 AM to 6 PM. Following an overnight fast, with free access to water, animals are dosed by oral gavage with varying doses of test compound or vehicle (3 mM HCl, 0.01% Tween80), at a dose volume of 5 mL/kg. […] For an individual animal, the length travels by the Evans Blue dye front is divided by the length of the whole small intestine, measured from the pylorus to the cecum, and multiplied by 100, to provide the distance of the small intestine travelled by the dye as a percentage.

[3] = system: absorption of sodium from the intestinal lumen; experiment: Inhibition of intestinal sodium absorption in rats; type: in vivo, Sprague Dawley rats; conditions: 13-hours post-dose; for response vs control in vivo at 0.003 mg/kg / response vs control in vivo at 0.01 mg/kg / response vs control in vivo at 0.03 mg/kg / response vs control in vivo at 0.1 mg/kg: Rattus norvegicus, Sprague Dawley rats, read-out: Urinary Na (% of Vehicle, out/in); for response vs control in vivo at 0.003 mg/kg: oral gavage 0.003 mg/kg; for response vs control in vivo at 0.01 mg/kg: oral gavage 0.01 mg/kg; for response vs control in vivo at 0.03 mg/kg: oral gavage 0.03 mg/kg; for response vs control in vivo at 0.1 mg/kg: oral gavage 0.1 mg/kg; for FFS (1-5): rats, group median fecal form score, 1 normal pellet to 5 liquid fecal streams
Protocol: Urinary sodium excretion and fecal form were measured to assess the ability of selected example compounds to inhibit the absorption of sodium from the intestinal lumen. Eight-week old, male, Sprague Dawley rats were purchased from Envigo (Livermore, Calif.), were housed 2 per cage and acclimated for at least 48 hours before study initiation. Animals were fed. Harlan Teklad Global TD.160470 rodent chow (Madison, Wis.), standard laboratory rodent chow Harlan Teklad Global 2018 with the addition of 0.4% inorganic phosphorous. Animals had ad libitum access to food and water for the duration of the study and were maintained in a temperature and humidity controlled room on a standard light/dark cycle of 6 AM to 6 PM. On the day of study initiation, rats (n=5/group) were dosed by oral gavage with test compound or vehicle (3 mM HCl, 0.01% Tween80) at a dose volume of […]. Immediately after dose administration animals were placed in individual metabolic cages. At 13-hours post-dose, urine samples were collected and fecal form was assessed. In addition, the weight of food consumed over the 13-hour period was measured and recorded. Fecal forms were scored according to a common scale associated with increasing fecal water to the wettest observation in the cage's collection funnel (1, normal pellet; 2, pellet adhering to sides of collection funnel due to moisture; 3, loss of normal pellet shape; 4, complete loss of shape with a blotting pattern; 5, liquid fecal streams evident). Fecal form score (FFS) was calculated for each group as the median of each individual rat's FFS within the group and reported in Table 7. Fecal samples were dried using a lyophilizer for at least 3 days, following which dry weight was recorded and fecal fluid content was calculated based on the difference between the wet and dry stool weights. Fecal fluid content was calculated as a change from the vehicle group mean. For urine samples, the volumes were determined gravimetrically. Urine samples were analyzed on an ion chromatography system (Thermo Fisher ICS-3000 or ICS-5000+) coupled with conductivity detectors. Chromatographic separation of cations was performed using an IonPac CS12A (Thermo Fisher) 2×250 mm analytical column with an isocratic elution using 25 mM methanesulfonic acid. Concentrations were interpolated from a standard curve (prepared in 10 mM HCl) for sodium based on retention time and peak area. Thirteen-s-hour urinary sodium excretion (mg/13-hours) was calculated by multiplying urinary sodium concentration by 13-hour urine volume. The urinary sodium excretion of compound treatment was normalized to dietary sodium intake and expressed as a percentage of the vehicle mean.

[4] = 1 hr after dosing, read-out: TEER at 60 minutes (% of Vehicle)
[5] = 0.5 h, 30 mins after dosing, read-out: TEER at 30 minutes (% of Vehicle)

Structure (SMILES)	activity at 1 µM [1, 4] [%]	activity at 1 µM [1, 5] [%]	% Restoration of Transit [2]	response vs control in vivo at 0.003 mg/kg [3] [%]	response vs control in vivo at 0.01 mg/kg [3] [%]	response vs control in vivo at 0.03 mg/kg [3] [%]	response vs control in vivo at 0.1 mg/kg [3] [%]	FFS (1-5) ([3]; 0.003 mg/kg)	FFS (1-5) ([3]; 0.01 mg/kg)	FFS (1-5) ([3]; 0.03 mg/kg)	FFS (1-5) ([3]; 0.1 mg/kg)
N#Cc1cc(Cl)cc2c1C[C@H](N1CCNCC1)[C@H]2Oc1ccc(S(=O)(=O)NC2CCN(C(=O)CCCNC(=O)NCCCCNC(=O)NCCCC(=O)N3CCC(NS(=O)(=O)c4ccc(O[C@H]5c6cc(Cl)cc(C#N)c6C[C@@H]5N5CCNCC5)cc4)CC3)CC2)cc1 [Example 115]	100 to 130	100 to 130	B (20-40%)	> 70	> 70	> 70	< 40	1	2	2	2
N#Cc1cc(Cl)cc2c1C[C@H](N1CCNCC1)[C@H]2Oc1ccc(S(=O)(=O)NCCOCCOCCNC(=O)NCCCCNC(=O)NCCOCCOCCNS(=O)(=O)c2ccc(O[C@H]3c4cc(Cl)cc(C#N)c4C[C@@H]3N3CCNCC3)cc2)cc1 [Example 41, 3-[2-(2-[2-[(4-[[(1S,2S)-6-Chloro-4-cyano-2-(piperazin-1-yl)-2,3-dihydro-1H-inden-1-yl]oxy]benzene)sulfonamido]ethoxy]ethoxy)ethyl]-1-[4-([[2-(2-[2-[(4-[[(1S,2S)-6-chloro-4-cyano-2-(piperazin-1-yl)-2,3-dihydro-1H-inden-1-yl]oxy]benzene)sulfonamido]ethoxy]ethoxy)ethyl]carbamoyl]amino)butyl]urea; bis(trifluoroacetic acid)]	100 to 130	100 to 130	A (<20%)	> 70	> 70	40 to 70	< 40	2	2	2	5
